From article PMC7071032, “In Vitro Inhibition of Hsp90 Protein by Benzothiazoloquinazolinequinones Is Enhanced in The Presence of Ascorbate. A Preliminary In Vivo Antiproliferative Study” (Molecules, 2020)

Columns and labels:
[1] = tested on: panel of cancer cells (T24, DU-145, MCF-7); experiment: MTT reduction assay, panel of cancer cells (means, ranges, selectivity index); type: cell-based, human; conditions: IC50 values of fibroblasts (AG 1523)/IC50 values of tumor cells (T24, DU-145, MCF-7)
Protocol: (§1) As positive control, two well-known anticancer drugs, namely TAM and 5-FU, were also tested on these cell lines. […] Regarding 5-FU, it is a broad-spectrum chemotherapeutic drug used to treat a variety of malignancies. Particularly, it has a long history of use against bladder tumors.
Such a selective index was calculated as the ratio between IC50 values of healthy cells/IC50 values in cancer cells.
(§2) Cells were seeded into 96-well plates at a density of 10,000 cells/well for 24 h and then incubated for 48 h with or without the quinone derivatives. […] The IC50 values were determined using the GraphPad Prism software (San Diego, CA, USA). Further incubation procedures and optical density reading of colored solutions were performed according to Benites et al..

[2] = tested on: DU-145 (prostate) cells; experiment: MTT reduction assay, DU-145 cells; type: cell-based; conditions: Homo sapiens, DU-145, 48 h, read-out: IC50 ± SEM DU-145
Protocol: as §1
(§3) Cell culture conditions were the same as reported elsewhere. Briefly, cell lines were kept in DMEM containing 10% fetal calf serum. In addition, 100 U/mL of penicillin and 100 µg/mL streptomycin from Gibco (Grand Island, NY, USA) were further added. Cell cultures were kept at 37 °C under an atmosphere of 95% air/5% CO2 and 100% humidity. Sodium L-ascorbate, menadione (vitamin K3), TAM, and 5-FU were purchased from Sigma (St. Louis, MO, USA).
(§4) The cytotoxicity of the quinones was assessed by following the reduction of MTT (3-(4,5-dimethylthiazol-2-yl)-2,5-diphenyltetrazolium bromide) to formazan blue and the capability of cancer cells to proliferate, namely a clonogenic assay.
as §2

[3] = tested on: MCF-7 (breast) cells; experiment: MTT reduction assay, MCF-7 cells; type: cell-based; conditions: Homo sapiens, MCF7, 48 h incubation, read-out: IC50 ± SEM MCF-7
Protocol: as §1, §3, §4, §2

[4] = tested on: non-tumor fibroblasts AG 1523; experiment: MTT reduction assay, non-tumor fibroblasts; type: cell-based; conditions: Homo sapiens, AG1523, 48 h incubation, read-out: IC50 ± SEM AG 1523
Protocol: as §1, §3, §4, §2

[5] = tested on: T24 (bladder) cells; experiment: MTT reduction assay, T24 cells; type: cell-based; conditions: Homo sapiens, T-24, 48 h incubation, read-out: IC50 ± SEM T24
Protocol: as §1, §3, §4, §2

[6] = tested on: Hsp90; experiment: Immunoblot of Hsp90 protein integrity in T24 cells; type: cell-based, human; conditions: 5 µM quinone plus 1 mM ascorbate, 4 h
Protocol: Nevertheless, when incubation was done in the presence of 1 mM ascorbate (vitamin C) plus quinones (including menadione), a new peptide fragment of about 70 kD was detected by the antibody against Hsp90.
Figure 1 Effects of selected quinones of Hsp90 (A) and poly(ADPribose)polymerase (PARP) (B) protein integrity in T24 cells. Cancer cells were incubated for 4 h with 5 µM menadione (K3), 15, 16, 19, or 20 either in the absence or in the presence of 1 mM ascorbate (Asc). Ctl represents control untreated cells. * p < 0.05 as compared to control conditions.
Cancer cells were incubated for 4 h in the absence and in the presence of compounds. Afterward, cells were washed twice with ice-cold PBS and then resuspended in RIPA lysis buffer supplemented with 1% protease inhibitor cocktail (Sigma–Aldrich, St. Louis, MO, USA) and 3% phosphatase inhibitor cocktail (Calbiochem, Darmstadt, Germany). Treatment of samples and electrophoresis conditions were conducted as previously reported. Mouse monoclonal primary antibodies against hsp90α/β C-terminus (F8), and against β-actin (clone AC-15), were purchased from Santa Cruz Biotechnology (Santa Cruz, CA, USA) and from Abcam (Cambridge, UK), respectively. Rabbit polyclonal antibodies against PARP were purchased from BD Biosciences (San Diego, CA, USA). […]

[7] = tested on: poly(ADPribose)polymerase (PARP); experiment: Immunoblot of PARP protein integrity in T24 cells; type: cell-based, human; conditions: 5 µM, 4 h, regardless of the presence of ascorbate (1 mM)
Protocol: Figure 1 Effects of selected quinones of Hsp90 (A) and poly(ADPribose)polymerase (PARP) (B) protein integrity in T24 cells. […] Ctl represents control untreated cells. * p < 0.05 as compared to control conditions. […] This was the case regardless of the presence of ascorbate (1 mM). The obtained results make a potential role of apoptosis unlikely to be the underlying mechanism of cell impairment induced by quinones, including menadione. Indeed, PARP is a substrate of caspase-3, therefore, when an apoptosis process is triggered, it is expected that PARP protein will be cleaved yielding a second protein band also recognized by the anti-PARP antibody. Cancer cells were incubated for 4 h in the absence and in the presence of compounds. Afterward, cells were washed twice with ice-cold PBS and then resuspended in RIPA lysis buffer supplemented with 1% protease inhibitor cocktail (Sigma–Aldrich, St. Louis, MO, USA) and 3% phosphatase inhibitor cocktail (Calbiochem, Darmstadt, Germany). Treatment of samples and electrophoresis conditions were conducted as previously reported. Mouse monoclonal primary antibodies against hsp90α/β C-terminus (F8), and against β-actin (clone AC-15), were purchased from Santa Cruz Biotechnology (Santa Cruz, CA, USA) and from Abcam (Cambridge, UK), respectively. Rabbit polyclonal antibodies against PARP were purchased from BD Biosciences (San Diego, CA, USA). […]

Row | IC50 [2] [µM] | IC50 [3] [µM] | IC50 [5] [µM] | melting point [°C] | SMILES | MSI: mean selective index [1] | IC50 [4] [µM] | Hsp90 protein cleavage [6] | PARP cleavage [7]
1 | 8.46 ± 0.31 | 5.26 ± 0.22 | 6.86 ± 0.33 | 129 to 129.5 | CCCCCC1(O)C2=C(N=C3Sc4cc(C)ccc4N31)C(=O)c1ccccc1C2=O (centres unmarked) [Compound 17] | 1.09 | 7.5 ± 0.69 | – | –
2 | – | – | – | – | CC1=CC(=O)c2ccccc2C1=O [menadione, reference compound] | – | – | strong Hsp90 cleavage | neither the quinone derivatives nor menadione induced a detectable PARP cleavage
